Measured values published in publication PMC8282797, “Strictly regulated agonist-dependent activation of AMPA-R is the key characteristic of TAK-653 for robust synaptic responses and cognitive improvement” (Scientific Reports, 2021).

What was measured:
naïve rats = assay: Novel object recognition (NOR) test; type: in vivo, rat; conditions: for NORT (effective doses): summary
Experimental: NOR tests were performed using male Long-Evans rats at 6 weeks old as previously described, with some modifications. On day 1, rats were allowed to habituate to the empty test box (a gray-colored polyvinyl chloride box (40 × 40 × 50 cm)) for 10 min individually. Testing comprised two 3-min trials called the acquisition trial and the retention trial that were separated by 48 h inter-trial intervals (ITIs). On day 2, in the acquisition trial, rats were allowed to explore two identical objects (A1 and A2) for 3 min. On day 4, in the retention trial, rats were again allowed to explore a familiar object (A3) and a novel object (B) for 3 min. The object exploration was defined as rats' licking, sniffing or touching the object with forelimbs while sniffing. TAK-653 or AMPA was orally or intraperitoneally, respectively, 2 h or 0.5 h prior to the acquisition and the retention trials. The NDI was calculated using the following equation: novel object interaction/total interaction × 100 (%).

[1] = tested on: MK-801-induced working memory deficit in rats; assay: Radial arm maze (RAM) test, MK-801-induced working memory deficit; type: in vivo, rat; conditions: for RAM (effective doses): summary
Experimental: RAM tests were performed using 9-week-old male Long-Evans rats as previously described with a minor modification. Each arm was 50 cm long, 10 cm wide and 40 cm high, and the maze was elevated 50 cm above the floor. Long-Evans rats were food-restricted to 85% of free-feeding body weight throughout the experimental period. Rats were well trained to collect pellets placed on the edge of each arm. The learning criterion for the testing session was defined as 2 errors or fewer for 2 consecutive days. In the testing session, each rat was placed on the maze facing the fixed arm at the start of the trial. The entry of rats into each arm was recorded in sequence until all pellets in the 8 arms were consumed, or 5 min had elapsed. […] Thirty min after dosing of vehicle or MK-801, rats were placed on the maze. Details are described in the Supplementary Information.
The experiment was performed using 9-week-old male Long-Evans rats as described previously (Zajaczkowski et al., 1996) with a minor modification. Each arm was 50 cm long, 10 cm wide and 40 cm high, and the maze was elevated 50 cm above the floor. After being fasted for 24 h, male Long-Evans rats were food-restricted to 85% of free-feeding body weight on the first day of exposure to the maze and throughout the experimental period. The experiment consists of two sessions, training and testing session. In the training session, rats were habituated to the maze and then trained. Reinforcement consisted of 3 food pellets (45 mg each) in the food cup was used. On the first day of habituation to the maze, reinforcements were placed near the entrance and at the mid-point of each arm. Three rats were placed on the maze at one time and allowed to explore and consume the pellets for 8 min. On the second day of habituation, each rat was placed on the maze and allowed 5 min to consume the pellets placed at the mid-point and in the food cup at the end of each arm. From the third day, reinforcement was placed in the food cup at the end of each arm. Rats were well trained to collect pellets placed on the edge of each arm. The learning criterion for the testing session was defined as 2 errors or less for two consecutive days. In the previous day of the testing session, baseline level of performance was qualified to confirm that rats completed collecting all pellets placed in the 8 arms with two errors or less. In the testing session, each rat was placed on the maze facing away from the experimenter and facing the fixed arm at the start of the trial. The entry of rats into each arm was recorded in sequence. Rats were allowed to explore until all pellets in the 8 arms were consumed, or 5 min had elapsed. Entry into an arm previously chosen was counted as an error. […] […] Thirty min after dosing of vehicle or MK-801, rats were placed on the maze. Data were indicated as the mean ± SEM in the testing session.

Structure (SMILES) | Cognitive performance in the NOR test (naïve rats; 0.3 to 3 mg/kg, i.p.) | NORT (effective doses) (naïve rats) | Working memory in the RAM test ([1]; 0.1 to 3 mg/kg, i.p., MK-801 0.08 mg/kg, s.c.) | RAM (effective doses) [1] | Novelty discrimination index (NDI) (naïve rats; 0.03, 0.1 and 0.3 mg/kg, p.o., 2 h prior to trials) | Dose improving visual learning and memory in NOR test (naïve rats; p.o., rats) [mg/kg] | MK-801-induced deficits in RAM task ([1]; 0.1, 0.3, 3 and 10 mg/kg, p.o., MK-801 0.08 mg/kg, s.c.)
Cc1onc(O)c1CC(N)C(=O)O (stereo not drawn) [AMPA, alpha-amino-3-hydroxy-5-methyl-4-isoxazole-propionic acid] | did not improve | No effect | neither LY451646 at 0.03 to 1 mg/kg, p.o. nor AMPA at 0.1 to 3 mg/kg, i.p. improve | No effect | – | – | –
CC1=CN2CCS(=O)(=O)N=C2C(c2ccc(OC3CCCCC3)cc2)=N1 [TAK-653, 9-[4-(Cyclohexyloxy)phenyl]-7-methyl-3,4-dihydropyrazino[2,1-c][1,2,4]thiadiazine 2,2-dioxide] | – | Effective (0.03, 0.1, 0.3) | – | Effective (0.1, 0.3, 3, 10) | significantly improved | ≥ 0.03 | significantly ameliorated
